{"source": "patent US20140200210A1", "about": "“PHARMACEUTICAL COMPOSITION FOR TREATING PREMATURE EJACULATION AND METHOD FOR TREATING PREMATURE EJACULATION” (CTC BIO, INC., priority 2011, published 2014)", "test_system": "male patients suffering from premature ejaculation", "test": "Phase 2b clinical study, effect evaluation: intravaginal ejaculation latency time (IELT)", "type": "in vivo, human", "note": "Counter-ions that a name gives are not always drawn.", "source_text": "Male patients suffering from premature ejaculation were subject to the following parallel clinical study (Phase 2b) (randomized, double-blind, placebo-controlled and fixed dose study) for evaluating tolerance and determining a proper therapeutic capacity.\n• Subjects who passed screening entered a 4-week run-in period, and were randomized in 1:1:1 ratio of 2 groups with clomipramine and 1 group with placebo and subject to a double blind experiment. […] Each subject visited the hospital after taking the test drugs for 4 weeks by on-demand therapy.\nGroup 0 was administered with a tablet of 15 mg placebo and a tablet of 30 mg placebo, Group 1 was administered with a tablet of 15 mg clomipramine HCl and a tablet of 30 mg placebo, and Group 2 was administered with a tablet of 30 mg clomipramine HCl and a tablet of 15 mg placebo for 4 weeks on-demand at about 2 hours to 6 hours prior to sexual activity. The tablets were orally taken with a glass of water.\nPrimary effectiveness evaluation variables in this clinical study include an IELT fold change at visit 3 (measuring between 0 and 4 weeks) relative to baseline values (i.e., IELT fold change=Value of IELT measured at visit 3 (0 to 4 weeks)/Value of IELT measured at baseline) in each of Group 0 (with treatment of placebo), Group 1 (with treatment of 15 mg clomipramine HCl) and Group 2 (with treatment of 30 mg clomipramine HCl). […]\n(1) After administering placebo and 15 mg of clomipramine, and placebo and 30 mg of clomipramine for the period of 4 weeks, a change (%) of IELT values between 0 to 4 weeks after administration, relative to before administration, was calculated by the equation [Change (%) of IELT Values=(Value of IELT measured at 0 to 4 weeks−Value of IELT measured at baseline)×100/Value of IELT measured at baseline].\n(2) After administering placebo and 15 mg of clomipramine, and placebo and 30 mg of clomipramine for the period of 4 weeks, a mean change of IELT values between 0 to 4 weeks after administration was calculated. […]", "data": [{"smiles": "CN(C)CCCN1c2ccccc2CCc2ccc(Cl)cc21", "note": "[clomipramine, clomipramine hydrochloride]", "values": [{"measurement": "minimum effective dose", "setting": "case of ITT1", "value": 30, "unit": "mg"}, {"measurement": "minimum effective dose", "setting": "cases of ITT2 and ITT3", "value": 15, "unit": "mg"}, {"measurement": "minimum effective dose", "setting": "considering overall situations", "value": 15, "unit": "mg"}]}]}
